Data on 27 compounds can be found in patent US20230150981A1, “N-HETEROARYLALKYL-2-(HETEROCYCLYL AND HETEROCYCLYLMETHYL) ACETAMIDE DERIVATIVES AS SSTR4 AGONISTS” (Takeda Pharmaceutical Compnay Limited, priority 2020, published 2023).

SMILES strings stand for the structures. Where only a bound is given, the exact number is not on record here.

The target in one experiment is T1, SSTR1 (Homo sapiens, UniProt P30872).
T1 construct: purchased Perkin Elmer ES-520-M400UA; host or cells: CHO-K1 membranes
The experiment is described as follows: SSTR1 I-125 somatostatin competition binding assay for selectivity versus SSTR1 (CHO-K1 membranes). Conditions: competition with I-125 somatostatin, membranes from CHO-K1 overexpressing SSTR1; read-out: SSTR1 Binding pIC50 (converted). The procedure, abridged: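 Competition binding used 10 μg CHO-K1 SSTR1 membranes and I-125 somatostatin, 0.4 nM in the compound mix before membranes were added. Buffer was 25 mM HEPES pH 7.4, 10 mM MgCl2, 1 mM CaCl2, 0.5% BSA. After 60 min at room temperature, bound tracer was filtered onto PEI-soaked filters and counted by scintillation; values are pIC50.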

Experiment [1] concerns the target T2, SSTR4 (Homo sapiens, UniProt P31391).
T2 construct: host or cells: CHO-K1
As to the kind of experiment: SSTR4 I-125 somatostatin competition binding assay (CHO-K1 membranes). Conditions: competition with I-125 somatostatin, membranes from CHO-K1 overexpressing SSTR4; read-out: SSTR4 Binding pIC50 (converted). The procedure, abridged:
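CHO-K1 membranes overexpressing SSTR4 (1 μg/well) were incubated 60 min at room temperature with compound and I-125 somatostatin (0.2 nM in the compound mix) in 25 mM HEPES pH 7.4, 10 mM MgCl2, 1 mM CaCl2, 0.5% BSA. Bound radioligand was collected on PEI-soaked filters and scintillation-counted, with results reported as pIC50.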

Experiment [2] has as its target T2, SSTR4. As to the kind of experiment: Inhibition of forskolin stimulated cAMP in CHO-K1 cells overexpressing SSTR4. The format is cell-based. Conditions: read-out: SSTR4 Activity pEC50 (converted). The gist of the method: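 CHO-K1 cells overexpressing SSTR4 treated 30 min at room temperature with compound in Krebs Ringer buffer containing 0.5% BSA, 300 μM IBMX and 350 nM forskolin. Intracellular cAMP measured by HTRF LANCE Ultra (665/615 nm); pEC50 values reported.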

T2 sequence (P31391 whole entry): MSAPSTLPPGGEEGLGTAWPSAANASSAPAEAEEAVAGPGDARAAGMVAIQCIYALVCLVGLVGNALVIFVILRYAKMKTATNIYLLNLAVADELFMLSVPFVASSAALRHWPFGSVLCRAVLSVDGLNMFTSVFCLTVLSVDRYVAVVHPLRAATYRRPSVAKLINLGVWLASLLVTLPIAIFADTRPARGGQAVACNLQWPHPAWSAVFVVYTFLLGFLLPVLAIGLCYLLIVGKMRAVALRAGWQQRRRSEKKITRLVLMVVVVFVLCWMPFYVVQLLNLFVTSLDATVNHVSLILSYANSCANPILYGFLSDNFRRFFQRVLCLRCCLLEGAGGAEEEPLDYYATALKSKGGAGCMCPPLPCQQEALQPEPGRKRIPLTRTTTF
T1 sequence (P30872 whole entry): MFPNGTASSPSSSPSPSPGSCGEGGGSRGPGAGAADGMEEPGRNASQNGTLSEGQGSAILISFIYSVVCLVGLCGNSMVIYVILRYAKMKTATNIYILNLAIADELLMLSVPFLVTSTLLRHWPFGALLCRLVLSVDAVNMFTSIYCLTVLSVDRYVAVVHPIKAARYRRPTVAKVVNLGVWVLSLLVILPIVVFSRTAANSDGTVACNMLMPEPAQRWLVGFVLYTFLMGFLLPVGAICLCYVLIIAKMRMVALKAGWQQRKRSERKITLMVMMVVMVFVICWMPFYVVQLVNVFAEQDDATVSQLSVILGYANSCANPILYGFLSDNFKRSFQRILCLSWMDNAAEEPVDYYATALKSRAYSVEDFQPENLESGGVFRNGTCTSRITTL

Turning to `CN1CCCCC1CC(=O)NC(C)(C)c1cc(Cl)ccc1Cl` (stereo not drawn) [Example 45, N-(2-(2,5-dichlorophenyl)propan-2-yl)-2-(1-methylpiperidin-2-yl)acetamide], the figures for the IC50 at SSTR1 and on SSTR4 [1] were 7.94 µM and 0.158 µM, respectively. The EC50 at SSTR4 [2] was 0.0251 µM.
For `Cc1cccnc1OCC(C)(C)NC(=O)C[C@H]1CCCN1C` [Example 46, (R)-N-(2-methyl-1-((3-methylpyridin-2-yl)oxy)propan-2-yl)-2-(1-methylpyrrolidin-2-yl)acetamide], the figures for the IC50 at SSTR1 and at SSTR4 [1] were 25.1 µM and 0.398 µM, respectively. Further, on SSTR4 [2], the EC50 is 0.0126 µM.
The corresponding values for `Cc1cccnc1OCC(C)(C)NC(=O)C[C@@H]1CCCN1C` [Example 47, (S)-N-(2-methyl-1-((3-methylpyridin-2-yl)oxy)propan-2-yl)-2-(1-methylpyrrolidin-2-yl)acetamide] are 25.1 µM, 0.398 µM and 0.0126 µM.
In the same order, the values of `CN1CCC[C@H]1CC(=O)NC(C)(C)COc1ncccc1C(F)(F)F` [Example 48, (S)-N-(2-methyl-1-((3-(trifluoromethyl)pyridin-2-yl)oxy)propan-2-yl)-2-(1-methylpyrrolidin-2-yl)acetamide] are 15.8 µM, 0.316 µM and 0.0251 µM.
In the same order, the values of `CN1CCC[C@@H]1CC(=O)NC(C)(C)COc1ncccc1C(F)(F)F` [Example 49, (R)-N-(2-methyl-1-((3-(trifluoromethyl)pyridin-2-yl)oxy)propan-2-yl)-2-(1-methylpyrrolidin-2-yl)acetamide] are 15.8 µM, 0.2 µM and 0.0251 µM.
On to `CCN1CCCC1CC(=O)NC(C)(C)COc1ncccc1C(F)(F)F` (stereo not drawn) [Example 50, 2-(1-ethylpyrrolidin-2-yl)-N-(2-methyl-1-((3-(trifluoromethyl)pyridin-2-yl)oxy)propan-2-yl)acetamide], for which the values for the IC50 at SSTR1 and on SSTR4 [1] were 12.6 µM and 0.126 µM, respectively. In addition, on SSTR4 [2], the EC50 is 0.0158 µM.
With `Cc1cccnc1OCC1(NC(=O)C[C@@H]2CCCN2C)CCC1` [Example 55, (S)-N-(1-(((3-methylpyridin-2-yl)oxy)methyl)cyclobutyl)-2-(1-methylpyrrolidin-2-yl)acetamide], the results for the IC50 on SSTR1 and on SSTR4 [1] were 39.8 µM and 1 µM, respectively. Besides, at SSTR4 [2], the EC50 is 0.1 µM.
As to `CCN1CCC[C@@H]1CC(=O)NC(C)(C)COc1ncccc1C(F)(F)F` [Example 57, (R)-2-(1-ethylpyrrolidin-2-yl)-N-(2-methyl-1-((3-(trifluoromethyl)pyridin-2-yl)oxy)propan-2-yl)acetamide], the IC50 at SSTR1 was 12.6 µM; at SSTR4 [1] it was 0.1 µM. Moreover, the EC50 on SSTR4 [2] was 0.00398 µM.
The corresponding values for `C[C@H](NC(=O)CC1CCCCN1C)c1ccc(Cl)cc1` (stereo partly drawn) [Example 60, N-((S)-1-(4-chlorophenyl)ethyl)-2-(1-methylpiperidin-2-yl)acetamide] are 25.1 µM, 0.501 µM and 0.1 µM.
The corresponding values for `CCN1CCCC1CC(=O)NC(C)(C)COc1ncccc1C` (stereo not drawn) [Example 62, 2-(1-ethylpyrrolidin-2-yl)-N-(2-methyl-1-((3-methylpyridin-2-yl)oxy)propan-2-yl)acetamide] are 25.1 µM, 0.251 µM and 0.0251 µM.
The corresponding values for `Cc1cc2ccccc2c(C(C)(C)NC(=O)C[C@H]2CCCN2C)n1` [Example 70, (R)-N-(2-(3-methylisoquinolin-1-yl)propan-2-yl)-2-(1-methylpyrrolidin-2-yl)acetamide] are 1.26 µM, 0.0794 µM and 0.00501 µM.
With `Cc1cccnc1OCC1(NC(=O)C(C)C2CCCN2C)CC1` (stereo not drawn) [Example 71, N-(1-(((3-methylpyridin-2-yl)oxy)methyl)cyclopropyl)-2-(1-methylpyrrolidin-2-yl)propanamide], the IC50 on SSTR1 is 25.1 µM; on SSTR4 [1] it was 0.251 µM. Besides, the EC50 at SSTR4 [2] was 0.0316 µM.
Take `Cc1cccnc1OCC(C)(C)NC(=O)CC12CCCN1CCC2` [Example 77, N-(2-methyl-1-((3-methylpyridin-2-yl)oxy)propan-2-yl)-2-(tetrahydro-1H-pyrrolizin-7a(5H)-yl)acetamide]: the IC50 at SSTR1 was > 50.1 µM; at SSTR4 [1] it was 3.16 µM. Moreover, at SSTR4 [2], the EC50 is 0.0794 µM.
The corresponding values for `CC(C)(COc1ncccc1C(F)F)NC(=O)CC12CCCN1CCC2` [Example 78, N-(1-((3-(difluoromethyl)pyridin-2-yl)oxy)-2-methylpropan-2-yl)-2-(tetrahydro-1H-pyrrolizin-7a(5H)-yl)acetamide] are > 50.1 µM, 10 µM and 0.251 µM.
Consider `CN1CCC[C@H]1CC(=O)NC(C)(C)c1cccc(Cl)c1Cl` [Example 80, (S)-N-(2-(2,3-dichlorophenyl)propan-2-yl)-2-(1-methylpyrrolidin-2-yl)acetamide], for which the values for the IC50 on SSTR1 and on SSTR4 [1] were 20 µM and 0.316 µM, respectively. Further, at SSTR4 [2], the EC50 is 0.0251 µM.
In the same order, the values of `Cc1cccc(C(C)(C)NC(=O)C[C@@H]2CCCN2C)c1Cl` [Example 88, (S)-N-(2-(2-chloro-3-methylphenyl)propan-2-yl)-2-(1-methylpyrrolidin-2-yl)acetamide] are 39.8 µM, 0.398 µM and 0.0631 µM.
The corresponding values for `Cc1cccc(C(C)(C)NC(=O)C[C@H]2CCCN2C)c1Cl` [Example 91, (R)-N-(2-(2-chloro-3-methylphenyl)propan-2-yl)-2-(1-methylpyrrolidin-2-yl)acetamide] are 25.1 µM, 0.398 µM and 0.0398 µM.
In the same order, the values of `Cc1cccc(C(C)(C)NC(=O)C[C@@H]2CCCN2C)c1C` [Example 92, (S)-N-(2-(2,3-dimethylphenyl)propan-2-yl)-2-(1-methylpyrrolidin-2-yl)acetamide] are > 50.1 µM, 1 µM and 0.0631 µM.
In the case of `CN1CCC[C@@H]1CC(=O)NC(C)(C)c1cccc(F)c1Cl` [Example 94, (R)-N-(2-(2-chloro-3-fluorophenyl)propan-2-yl)-2-(1-methylpyrrolidin-2-yl)acetamide], the IC50 on SSTR1 is > 50.1 µM; at SSTR4 [1], 0.398 µM. For the same compound, the EC50 on SSTR4 [2] is 0.0631 µM.
The corresponding values for `CN1CCC[C@@H]1CC(=O)NC(C)(C)c1cccc(Cl)c1Cl` [Example 96, (R)-N-(2-(2,3-dichlorophenyl)propan-2-yl)-2-(1-methylpyrrolidin-2-yl)acetamide] are 15.8 µM, 0.2 µM and 0.0158 µM.
In the same order, the values of `CC(C)(NC(=O)CC1NCCC1(F)F)c1nccc2ccccc12` (stereo not drawn) [Example 100, 2-(3,3-difluoropyrrolidin-2-yl)-N-(2-(isoquinolin-1-yl)propan-2-yl)acetamide] are > 50.1 µM, 1 µM and 0.2 µM.
The corresponding values for `Cc1cccc2c(C(C)(C)NC(=O)CC3NCCC3(F)F)nccc12` (stereo not drawn) [Example 101, 2-(3,3-difluoropyrrolidin-2-yl)-N-(2-(5-methylisoquinolin-1-yl)propan-2-yl)acetamide] are > 50.1 µM, 0.631 µM and 0.1 µM.
Take `Cc1cccc(OCC(C)(C)NC(=O)C[C@@H]2CCCN2C)n1` [Example 104, (S)-N-(2-methyl-1-((6-methylpyridin-2-yl)oxy)propan-2-yl)-2-(1-methylpyrrolidin-2-yl)acetamide]: the IC50 at SSTR1 is 39.8 µM; on SSTR4 [1] it was 2 µM. Further, the EC50 at SSTR4 [2] was 0.1 µM.
For the compound `COc1c(Cl)cccc1C(C)(C)NC(=O)C[C@@H]1CCCN1C` [Example 112, (S)-N-(2-(3-chloro-2-methoxyphenyl)propan-2-yl)-2-(1-methylpyrrolidin-2-yl)acetamide], the IC50 on SSTR1 is > 50.1 µM; at SSTR4 [1], 0.501 µM. Besides, the EC50 on SSTR4 [2] was 0.0794 µM.
Turning to `Cc1c(Cl)cccc1C(C)(C)NC(=O)C[C@@H]1CCCN1C` [Example 118, (S)-N-(2-(3-chloro-2-methylphenyl)propan-2-yl)-2-(1-methylpyrrolidin-2-yl)acetamide], the IC50 is 39.8 µM on SSTR1 and 0.398 µM at SSTR4 [1]. In addition, the EC50 at SSTR4 [2] was 0.0794 µM.
For `Cc1c(Cl)cccc1C(C)(C)NC(=O)C[C@H]1CCCN1C` [Example 119, (R)-N-(2-(3-chloro-2-methylphenyl)propan-2-yl)-2-(1-methylpyrrolidin-2-yl)acetamide], the figures for the IC50 at SSTR1 and on SSTR4 [1] were 20 µM and 0.251 µM, respectively. The EC50 on SSTR4 [2] was 0.0158 µM.
The corresponding values for `CC(CN1CCC1)C(=O)NC(C)(C)c1ccccc1Cl` (stereo not drawn) [Example 132, 3-(azetidin-1-yl)-N-(2-(2-chlorophenyl)propan-2-yl)-2-methylpropanamide] are 20 µM, 0.0794 µM and 0.00794 µM.
